Earlier results on one compound are cited in patent US20230134563A1, “SUBLINGUAL CANNABINOID COMPOSITIONS” (ALVIT LCS PHARMA LTD., priority 2017, published 2023).

For this data set the following is noted: single component (oil or surfactant).

Consider `CCCCCc1cc(O)c2c(c1)OC(C)(C)[C@@H]1CCC(C)=C[C@@H]21` [THC, tetrahydrocannabinol], for which the HLB is listed as 0.754.
